According to patent US5000966A, “Quality improvement of alcoholic liquors by enzymatic decomposing of ethyl carbamate” (Takeda Chemical Industries, Ltd., priority 1987, dated 1991):

Tested on: Candida krusoides ATCC 7345 enzyme capable of decomposing ethyl carbamate (partially purified crude enzyme of Example 5)
Assay: Km of the ethyl carbamate-decomposing enzyme (ammonia formation, nitroprusside method)
Format: biochemical
Settings: pH 4, 0.2M citrate buffer; substrate not given, taken as ethyl carbamate
Description: The activity of decomposing ethyl carbamate in the culture broth or its processed matter was determined colorimetrically by the nitroprusside method on ammonia produced by the reaction at 30° C. for 30 minutes of the mixture of a volume of a suspension of the cells in sterilized deionized water collected by centrifugation of the culture which had been diluted appropriately, […] The amount of enzyme to produce one micromole of ammonia per unit time (one minute) is expressed as 1 unit (1U). Candida krusoides ATCC 7345 was cultivated in the same manner as described in Example 1 to give 2 l of a culture broth having an activity of 0.007 U/ml for decomposing ethyl carbamate. The cells were collected from the culture broth by centrifugation, washed with 0.05M phosphate buffer (pH 7.2) twice, suspended in a solution containing 1 mM of EDTA and 1 mM of dithiothreitol, broken down by treating with a cell mill containing glass beads having 0.1-0.2 mm in diameter and were treated at 4500 rpm for 20 minutes The treated product was centrifuged and to the supernatant was added ammonium sulfate so that the concentration comes to 90%. […]

Compound `CCOC(N)=O` [ethyl carbamate] has a Km of 65 mM.
